Laboratory results published in the NIST ThermoML archive (doi:10.1016/j.jct.2015.08.011).
± gives the expanded uncertainty stated by the source.

Columns and labels:
[1] = 101.33 kPa, Liquid, Vibrating tube method
[2] = excess molar enthalpy (molar enthalpy of mixing); xn = mol fraction of the nth substance listed; conditions: 298.15 K, 101 kPa, Liquid, Flow calorimetry

COC(C)(C)CC(C)(C)C [methyl 1,1,3,3-tetramethylbutyl ether]
[1]
Conditions | mass density [kg/m3]
298.15 K | 792.4 ± 1.6
308.15 K | 784.1 ± 1.6
318.15 K | 776 ± 1.6
328.15 K | 767.6 ± 1.5
338.15 K | 759.2 ± 1.5
348.15 K | 750.7 ± 1.5
358.15 K | 742.1 ± 1.5
368.15 K | 733.4 ± 1.5
378.15 K | 724.5 ± 1.5
388.15 K | 715.5 ± 1.4
398.15 K | 706.3 ± 1.4
408.16 K | 696.8 ± 1.4

CO [methanol]
Conditions | mass density [kg/m3]
[1], 298.15 K | 786.2 ± 1.6

COC(C)(C)CC(C)(C)C [methyl 1,1,3,3-tetramethylbutyl ether] + CO
[2]
Conditions | excess molar enthalpy [kcal/mol]
x2 = 0.051 | 0.0476 ± 0.00335
x2 = 0.097 | 0.0767 ± 0.00406
x2 = 0.193 | 0.11 ± 0.0055
x2 = 0.299 | 0.126 ± 0.00621
x2 = 0.391 | 0.128 ± 0.00621
x2 = 0.489 | 0.124 ± 0.00598
x2 = 0.591 | 0.112 ± 0.0055
x2 = 0.695 | 0.0966 ± 0.00478
x2 = 0.794 | 0.0736 ± 0.00382
x2 = 0.896 | 0.0425 ± 0.00239
